# Biological target: Polθ theta (1-899) (hPolQ) (Homo sapiens (Human), UniProt O75417)
# Assay: Biological Assay 1: Polθ ATPase activity, NADH oxidation-coupled enzymatic assay (10 nM enzyme, 30 min)
# Type: biochemical
# Settings: Polθ (1-899) 10 nM, 100 μM ATP, 300 nM dT50 ssDNA; Examples 1 to 268; read-out: ATPase NADH coupling:Standard Screening:hPolQ IC50
# Summary of the method: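 Polθ (1-899) at 10 nM was preincubated with compound for 15 min at room temperature in 20 mM Tris pH 7.80, 80 mM KCl, 10 mM MgCl2. An equal volume of 100 μM ATP, 300 nM dT50 ssDNA and a PK/LDH–NADH coupling system was then added. A340 was read each minute for 30 min. IC50 came from rate slopes over 10-point series with a four-parameter fit.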
# Polθ theta (1-899) (hPolQ), sequence (O75417 1-899): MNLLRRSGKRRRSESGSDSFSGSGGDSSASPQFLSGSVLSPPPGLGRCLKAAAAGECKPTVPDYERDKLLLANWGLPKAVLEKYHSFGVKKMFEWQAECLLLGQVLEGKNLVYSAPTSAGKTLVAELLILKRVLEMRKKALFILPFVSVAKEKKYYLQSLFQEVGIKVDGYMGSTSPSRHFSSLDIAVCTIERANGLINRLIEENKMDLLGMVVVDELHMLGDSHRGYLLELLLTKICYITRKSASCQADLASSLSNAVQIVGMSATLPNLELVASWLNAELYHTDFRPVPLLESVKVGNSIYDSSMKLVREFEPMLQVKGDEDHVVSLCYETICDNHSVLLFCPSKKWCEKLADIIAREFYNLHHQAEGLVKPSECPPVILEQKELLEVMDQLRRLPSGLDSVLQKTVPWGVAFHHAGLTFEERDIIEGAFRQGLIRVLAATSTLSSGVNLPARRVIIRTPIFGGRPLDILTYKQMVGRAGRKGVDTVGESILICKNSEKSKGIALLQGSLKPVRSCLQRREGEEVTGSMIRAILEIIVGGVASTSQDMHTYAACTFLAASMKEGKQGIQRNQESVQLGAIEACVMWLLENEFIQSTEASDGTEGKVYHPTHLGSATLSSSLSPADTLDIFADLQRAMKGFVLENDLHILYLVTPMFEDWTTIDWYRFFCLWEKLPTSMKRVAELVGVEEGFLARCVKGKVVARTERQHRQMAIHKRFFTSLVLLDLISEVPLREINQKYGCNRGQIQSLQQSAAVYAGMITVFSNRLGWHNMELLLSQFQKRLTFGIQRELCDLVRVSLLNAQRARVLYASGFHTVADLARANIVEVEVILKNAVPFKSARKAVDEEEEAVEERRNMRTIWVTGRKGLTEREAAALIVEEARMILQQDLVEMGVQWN
row,Compound,IC50 [nM]
1,"COc1cnc(C)cc1-c1cc(C)ncc1C(=O)Nc1nnc(OCC23CC(O)(C2)C3)s1 [Example 98, N-(5-((3-hydroxybicyclo(1.1.1)pentan-1-yl)methoxy)-1,3,4-thiadiazol-2-yl)-5′-methoxy-2′,6-dimethyl-(4,4′-bipyridine)-3-carboxamide]",≤ 200
2,"COc1cnc(Cl)cc1-c1cc(C)ncc1C(=O)Nc1nnc(OCC23CC(O)(C2)C3)s1 [Example 99, 2′-chloro-N-(5-((3-hydroxybicyclo(1.1.1)pentan-1-yl)methoxy)-1,3,4-thiadiazol-2-yl)-5′-methoxy-6-methyl-(4,4′-bipyridine)-3-carboxamide]",≤ 200
3,"COc1cnc(C)cc1-c1cc(C)ncc1C(=O)Nc1nnc(OC[C@H]2CC[C@H](O)CC2)s1 [Example 100, N-(5-(((1r,4r)-4-hydroxycyclohexyl)methoxy)-1,3,4-thiadiazol-2-yl)-5′-methoxy-2′,6-dimethyl-[4,4′-bipyridine]-3-carboxamide]",≤ 200
4,"COc1cccc(F)c1-c1cc(C)ncc1C(=O)Nc1nnc(OC[C@H]2CC[C@@H](O)CC2)s1 [Example 101, 4-(2-fluoro-6-methoxyphenyl)-N-(5-(((1s,4s)-4-hydroxycyclohexyl)methoxy)-1,3,4-thiadiazol-2-yl)-6-methylnicotinamide]",≤ 200
5,"COc1cccc(F)c1-c1cc(C)ncc1C(=O)Nc1nnc(OCc2ccc3c(n2)CCOC3)s1 [Example 102, 4-(2-fluoro-6-methoxyphenyl)-6-methyl-N-(5-(5H,7H,8H-pyrano(4,3-b)pyridin-2-ylmethoxy)-1,3,4-thiadiazol-2-yl)pyridine-3-carboxamide]",≤ 200
6,"COc1cccc(F)c1-c1cc(C)ncc1C(=O)Nc1nnc(OCC23CC(C(C)(C)O)(C2)C3)s1 [Example 103, 4-(2-fluoro-6-methoxyphenyl)-N-(5-((3-(2-hydroxypropan-2-yl)bicyclo(1.1.1)pentan-1-yl)methoxy)-1,3,4-thiadiazol-2-yl)-6-methylpyridine-3-carboxamide]",≤ 200
7,"COc1cccc(F)c1-c1cc(C)ncc1C(=O)Nc1nnc(OC[C@H]2CC[C@H](O)CC2)s1 [Example 104, 4-(2-fluoro-6-methoxyphenyl)-N-(5-(((1r,4r)-4-hydroxycyclohexyl)methoxy)-1,3,4-thiadiazol-2-yl)-6-methylnicotinamide]",≤ 200
8,"COc1cnc(C2CC2)cc1-c1cc(C)ncc1C(=O)Nc1nnc(OCc2ccc(C(C)(C)O)cn2)s1 [Example 105, 2′-cyclopropyl-N-(5-((5-(2-hydroxypropan-2-yl)pyridin-2-yl)methoxy)-1,3,4-thiadiazol-2-yl)-5′-methoxy-6-methyl-[4,4′-bipyridine]-3-carboxamide]",≤ 200
9,"CCc1cc(-c2cc(C)ncc2C(=O)Nc2nnc(OCc3ccc(C(C)(C)O)cn3)s2)c(OC)cn1 [Example 106, 2′-ethyl-N-(5-((5-(2-hydroxypropan-2-yl)pyridin-2-yl)methoxy)-1,3,4-thiadiazol-2-yl)-5′-methoxy-6-methyl-[4,4′-bipyridine]-3-carboxamide]",≤ 200
10,"COc1cnc(C)cc1-c1cc(C)ncc1C(=O)Nc1nnc(OC[C@H]2C[C@H](O)C2)s1 [Example 107, N-(5-(((1r,3r)-3-hydroxycyclobutyl)methoxy)-1,3,4-thiadiazol-2-yl)-5′-methoxy-2′,6-dimethyl-[4,4′-bipyridine]-3-carboxamide]",≤ 200
11,"COc1cnc(Cl)cc1-c1cc(C)ncc1C(=O)Nc1nnc(OC[C@H]2C[C@H](O)C2)s1 [Example 108, 2′-chloro-N-(5-(((1r,3r)-3-hydroxycyclobutyl)methoxy)-1,3,4-thiadiazol-2-yl)-5′-methoxy-6-methyl-[4,4′-bipyridine]-3-carboxamide]",≤ 200
12,"COc1cccc(F)c1-c1cc(C)ncc1C(=O)Nc1nnc(OCc2ccc(C(C)(C)O)nc2)s1 [Example 109, 4-(2-fluoro-6-methoxyphenyl)-N-(5-((6-(2-hydroxypropan-2-yl)pyridin-3-yl)methoxy)-1,3,4-thiadiazol-2-yl)-6-methylpyridine-3-carboxamide]",≤ 200
13,"COc1cccc(F)c1-c1cc(C)ncc1C(=O)Nc1nnc(OCc2cnc([C@H](C)O)cn2)s1 [Example 110, 4-(2-fluoro-6-methoxyphenyl)-N-(5-((5-((S)-1-hydroxyethyl)pyrazin-2-yl)methoxy)-1,3,4-thiadiazol-2-yl)-6-methylnicotinamide]",≤ 200
14,"COc1cccc(F)c1-c1cc(C)ncc1C(=O)Nc1nnc(OCc2cnc([C@@H](C)O)cn2)s1 [Example 111, 4-(2-fluoro-6-methoxyphenyl)-N-(5-((5-((R)-1-hydroxyethyl)pyrazin-2-yl)methoxy)-1,3,4-thiadiazol-2-yl)-6-methylnicotinamide]",≤ 200
15,"COc1cccc(F)c1-c1cc(C)ncc1C(=O)Nc1nnc(OCC23CCC(O)(CC2)C3)s1 [Example 112, 4-(2-fluoro-6-methoxyphenyl)-N-(5-((4-hydroxybicyclo(2.2.1)heptan-1-yl)methoxy)-1,3,4-thiadiazol-2-yl)-6-methylpyridine-3-carboxamide]",≤ 200
16,"COc1cnc(Cl)cc1-c1cc(C)ncc1C(=O)Nc1nnc(OCc2ccc(OC(F)F)cn2)s1 [Example 113, 2′-chloro-N-(5-((5-(difluoromethoxy)pyridin-2-yl)methoxy)-1,3,4-thiadiazol-2-yl)-5′-methoxy-6-methyl-(4,4′-bipyridine)-3-carboxamide]",≤ 200
17,"COc1cccc(F)c1-c1cc(C)ncc1C(=O)Nc1nnc(OCc2ccc([S@](C)(=N)=O)cc2)s1 [Example 114, 4-(2-fluoro-6-methoxyphenyl)-6-methyl-N-(5-((4-((R)—S-methylsulfonimidoyl)benzyl)oxy)-1,3,4-thiadiazol-2-yl)nicotinamide]",≤ 200
18,"COc1cccc(F)c1-c1cc(C)ncc1C(=O)Nc1nnc(OCc2ccc([S@@](C)(=N)=O)cc2)s1 [Example 115, 4-(2-fluoro-6-methoxyphenyl)-6-methyl-N-(5-((4-((S)—S-methylsulfonimidoyl)benzyl)oxy)-1,3,4-thiadiazol-2-yl)nicotinamide]",≤ 200
19,"COc1cccc(F)c1-c1cc(C)ncc1C(=O)Nc1nnc(OCc2ccc3c(n2)CCC[C@@H]3O)s1 [Example 116, 4-(2-fluoro-6-methoxyphenyl)-N-(5-(((S)-5-hydroxy-5,6,7,8-tetrahydroquinolin-2-yl)methoxy)-1,3,4-thiadiazol-2-yl)-6-methylnicotinamide]",≤ 200
20,"COc1cccc(F)c1-c1cc(C)ncc1C(=O)Nc1nnc(OCc2ccc3c(n2)CCC[C@H]3O)s1 [Example 117, 4-(2-fluoro-6-methoxyphenyl)-N-(5-(((R)-5-hydroxy-5,6,7,8-tetrahydroquinolin-2-yl)methoxy)-1,3,4-thiadiazol-2-yl)-6-methylnicotinamide]",≤ 200
21,"COc1cnc(C)cc1-c1cc(C)ncc1C(=O)Nc1nnc(OC[C@H]2C[C@@H](O)C2)s1 [Example 118, N-(5-(((1s,3s)-3-hydroxycyclobutyl)methoxy)-1,3,4-thiadiazol-2-yl)-5′-methoxy-2′,6-dimethyl-[4,4′-bipyridine]-3-carboxamide]",≤ 200
22,"COc1cccc(F)c1-c1cc(C)ncc1C(=O)Nc1nnc(OCc2cnc(C(C)(C)O)cn2)s1 [Example 119, 4-(2-fluoro-6-methoxyphenyl)-N-(5-((5-(2-hydroxypropan-2-yl)pyrazin-2-yl)methoxy)-1,3,4-thiadiazol-2-yl)-6-methylnicotinamide]",200 to 500
23,"COc1cccnc1-c1cc(C)ncc1C(=O)Nc1nnc(OCc2ccc(Cl)cn2)s1 [Example 120, N-(5-((5-chloropyridin-2-yl)methoxy)-1,3,4-thiadiazol-2-yl)-3-methoxy-6′-methyl-(2,4′-bipyridine)-3′-carboxamide]",200 to 500
24,"COc1ccc(Cl)cc1-c1cnncc1C(=O)Nc1nnc(OCC23CCC(O)(CC2)CC3)s1 [Example 121, 5-(5-chloro-2-methoxyphenyl)-N-(5-((4-hydroxybicyclo(2.2.2)octan-1-yl)methoxy)-1,3,4-thiadiazol-2-yl)pyridazine-4-carboxamide]",200 to 500
25,"COc1ccc(Cl)cc1-c1cc(C)ncc1C(=O)Nc1nnc(OCc2ccc([S@](C)(=N)=O)cc2)s1 [Example 122, (R)-4-(5-chloro-2-methoxyphenyl)-6-methyl-N-(5-((4-(S-methylsulfonimidoyl)benzyl)oxy)-1,3,4-thiadiazol-2-yl)nicotinamide]",≤ 200
26,"COc1ccc(Cl)cc1-c1cc(C)ncc1C(=O)Nc1nnc(OCc2ccc([S@@](C)(=N)=O)cc2)s1 [Example 123, (S)-4-(5-chloro-2-methoxyphenyl)-6-methyl-N-(5-((4-(S-methylsulfonimidoyl)benzyl)oxy)-1,3,4-thiadiazol-2-yl)nicotinamide]",≤ 200
27,"COC(C)(C)c1ccc(COc2nnc(NC(=O)c3cnc(C)cc3-c3c(F)cccc3OC(F)F)s2)nc1 [Example 124, 4-(2-(difluoromethoxy)-6-fluorophenyl)-N-(5-((5-(2-methoxypropan-2-yl)pyridin-2-yl)methoxy)-1,3,4-thiadiazol-2-yl)-6-methylpyridine-3-carboxamide]",≤ 200
28,"COc1cnc(Cl)cc1-c1cc(C)ncc1C(=O)Nc1nnc(OCc2ccc(C(C)(C)OC)cn2)s1 [Example 125, 2′-chloro-5′-methoxy-N-(5-((5-(2-methoxypropan-2-yl)pyridin-2-yl)methoxy)-1,3,4-thiadiazol-2-yl)-6-methyl-(4,4′-bipyridine)-3-carboxamide]",≤ 200
29,"COc1cnc(C)cc1-c1cc(C)ncc1C(=O)Nc1nnc(OCc2ccc(C(C)(C)OC)cn2)s1 [Example 126, 5′-methoxy-N-(5-((5-(2-methoxypropan-2-yl)pyridin-2-yl)methoxy)-1,3,4-thiadiazol-2-yl)-2′,6-dimethyl-(4,4′-bipyridine)-3-carboxamide]",≤ 200
